The conditions of series [1]: administered in vivo; cited from earlier work.
In the next series the test system is OVCAR-3 cells. The conditions noted are these: growth inhibition; cited from earlier work.
For a further series, the system named is LS174T xenografts. As to the kind of experiment: LS174T xenografts in SCID mice. Type of series: in vivo, mouse. Here is the method:
In vivo evaluation of anti-cancer activity in LS174T xenografts—The mouse studies were conducted with the approval of the University of Kentucky Institutional Animal Care and Use Committee (2020-3531). All methods were carried out in compliance with the relevant guidelines and regulations according to protocols. The LS174T cells in exponential growth phase were trypsinized and resuspended in 50% Matrigel (Corning, Glendale, Arizona). Cells (1.2×10^6) were subcutaneously injected on the lower flanks of severe combined immunodeficient mice. The tumor volumes were calculated based on the formula Length×width^2/2. When tumors reached an average volume of 100 mm^3, the mice were divided into control and treatment groups (3 male and 3 female mice/group, two tumors on each mouse). After tumors were established, BAY-876 was given to the mice by gavage feeding to the BAY-876 group at the dose of 3 mg/kg/day. DBI-1 was daily intraperitoneally (i.p.) administered to the DBI-1 group at dose of 40 mg/kg mouse body weight. Mice in the combination treatment group were administered both oral BAY-876 at the dose of 3 mg/kg/day and i.p. DBI-1 at dose of 40 mg/kg mouse body weight. Tumors and mouse weights were measured every three days and the experiment was stopped at day 12. Tumors were isolated and fixed in 10% neutral buffered formalin. Tumor sections were analyzed with H&E and Ki-67 staining at Markey Cancer Center's Biospecimen Procurement and Translational Pathology Shared Resource Facility (BPTP SRF).

The next series deals with DLD-1 CRC cells. As to conditions: cited from earlier work.
The subject of series [2] is AMPK, mTOR and Wnt signaling. As to the kind of experiment: Western blotting of cell signaling pathways in CRC cells. In kind it is cell-based. Here is the method: Western blotting-Western blotting was carried out following previously reported procedures (50). Cells were incubated in 6-well plates and were treated with either DMSO or compounds dissolved in DMSO at indicated concentrations. Cells were lysed in 500 μl of lysis buffer: 50 mM HEPES, 100 mM NaCl, 2 mM EDTA, 1% (v/v) glycerol, 50 mM NaF, 1 mM Na3VO4, 1% (v/v) Triton X-100, with protease inhibitors (Sigma, P8340). The cell lysates were centrifuged (18,000×g, 10 min) and then 6× protein loading buffer was added to the suppernatants. The samples were boiled for 3 min and analyzed by standard Western blotting methods with the indicated antibodies.
Western blotting was performed as previously reported procedures (41). Cells were split into 6-well plates and incubated for 24 hours. Either DMSO or compounds dissolved in DMSO at indicated concentrations were added to each well for another 24 hours. Cells were lysed in 500 μL of lysis buffer containing 50 mmol/L HEPES, 100 mmol/L NaCl, 2 mmol/L EDTA, 1% (v/v) glycerol, 50 mmol/L NaF, 1 mmol/L Na3VO4, 1% (v/v) Triton X-100, and protease inhibitors (Sigma, P8340). Cell lysates were centrifuged for 10 minutes (18,000×g), and the supernatants were mixed with 6×protein loading buffer and boiled for 3 minutes. The samples were analyzed by standard Western blotting methods using the appropriate antibodies.

The next series has as its system LS174T cells. As to the kind of experiment: Seahorse oxygen consumption rate assay. In kind it is cell-based. As to conditions: rotenone/antimycin A replaced with compound. How it is done: Seahorse oxygen consumption rate assay-Seahorse assays were conducted in accordance with a published protocol (50). Mitochondrial bioenergetic measurements were performed using the Seahorse XFe96 Extracellular Flow Analyzer (Agilent Technologies, Santa Clara, CA, USA) to measure the oxygen consumption rate (OCR) in different respiratory states. 2.5×10^4 LS174T cells in 80 μL medium were seeded in XF96 Cell Culture microplate and cultured overnight. Then cell culture media were replaced with Seahorse XF modified media before cells were treated. […] To test whether compounds were ETC complex I or III inhibitors, rotenone and antimycin A were replaced with DMSO, or compounds in DMSO solution.
The Seahorse assays were performed in compliance with a pre-announced procedure (41). Oxygen consumption was measured using the Seahorse XFe96 Extracellular Flow Analyzer (Agilent Technologies, Santa Clara, CA, USA). 2.5×10^4 LS174T cells were seeded in XF96 Cell Culture microplate in 80 μL culture medium and incubated overnight. On the following day, the cell culture media were exchanged with Seahorse XF modified media. 1.0 μmol/L oligomycin, 1.0 μmol/L FCCP, and a mixture of 1.0 μmol/L rotenone and 1.0 μmol/L antimycin A were sequentially added during the measurements. […]

Entries after “also recorded” stand apart in the source; their conditions may differ.

`Cc1c(NC(=O)c2cc(C(N)=O)nc3cc(F)ccc23)c(C(F)(F)F)nn1Cc1ccc(C#N)cc1` [BAY-876, N^4-[1-(4-cyanobenzyl)-5-methyl-3-(trifluoromethyl)-1H-pyrazol-4-yl]-7-fluoroquinoline-2,4-dicarboxamide]: the oral availability result in series [1] was “orally available”. Moreover, the IC50 is 60 nM in the series with OVCAR-3 cells and 2 nM in the series with DLD-1 CRC cells. In addition, in the series on LS174T xenografts (BAY-876 3 mg/kg/day oral, DBI-1 40 mg/kg/day i.p., two weeks), the tumor growth result was “inhibited tumor growth”. For the same molecule, the “toxicity based on mice body weight growth rate” value in the series on LS174T xenografts (BAY-876 3 mg/kg/day, DBI-1 40 mg/kg/day) is “No significant toxicity”.

For the molecule `O=c1c(-c2ccc(Cl)c(Cl)c2)coc2cc(OCCN3CCN(CCO)CC3)ccc12` [DBI-6, 3-(3,4-dichlorophenyl)-7-(2-(4-(2-hydroxyethyl)piperazin-1-yl)ethoxy)-4H-chromen-4-one], the “effects on AMPK (pAMPK, pACC), mTOR (p70S6K, pS6) and Wnt (Axin2, c-Myc) signaling” value in series [2] (3 μM alone, LS174T cells, 24 hours) is “activated AMPK signaling (pAMPK and pACC) and inhibited mTOR signaling (p70S6K and pS6); also recorded: more active than DBI-1”. Further, the “AMPK phosphorylation (activation)” value in series [2] (3 μM, LS174T CRC cells) is “best activity in AMPK activation”. In addition, in the series with LS174T cells, the “oxygen consumption rate (OCR)” value is on record as “suppressed OCR in a similar manner to rotenone/antimycin A”.

The IC50 is the concentration needed to halve the response being measured.
